Data on eleven molecules can be found in PMC7284125, “Identification of annotated bioactive molecules that impair motility of the blood fluke Schistosoma mansoni” (International Journal for Parasitology: Drugs and Drug …, 2020).

Read-outs that look alike come from different tables or passages of the source.

What all share (type): cell-based, Schistosoma mansoni
The subject of series [1] is S. mansoni schistosomulae. The experiment in a line: Motility assay on schistosomulae (pixel displacement, relative to DMSO control). Particulars: for activity at 1 µM: Schistosoma mansoni, read-out: Fractional motility. Here is the method: Puerto Rican strain Biomphalaria glabrata snails infected with S. mansoni were kindly provided by Dr. Fred Lewis (Biomedical Research Institute and BEI Resources, MD, USA). Schistosomulae were obtained by exposing six to eight weeks-old snails to continuous light for 2 h at 32 °C. The resulting suspension of cercaria was then mechanically transformed as described ([Lewis, 2001]) and cultured in Opti-MEM/antibiotics (Thermo Fisher Scientific, Waltham, MA) containing 100 μg/mL streptomycin and 100 units/ml penicillin supplemented with 5% fetal bovine serum (FBS; Thermo Fisher). Parasite cultures were incubated at 37 °C with 5% CO2 for at least 10 days with no apparent loss of viability. At this point, animals with internal dark granulations and with no observable body contraction/relaxation cycles were considered dead.
(§1) Schistosomulae (200/well) and adult parasites (unpaired worms) were maintained in 300 μL OPTI-MEM with 5% dialyzed FBS (without antibiotics) and exposed to compounds at 1 and 10 μM for 24 h. A kinetic assay consisting of 1, 3, 6 and 12 h incubation times was performed on selected hits by motility monitoring using a stereo microscope (SMZ1270, Nikon) for adults and an inverted microscope for schistosomulae (eclipse TE2000-U, Nikon) connected to a monochrome camera (DS-Qi2, Nikon) for image acquisition. Images were recorded at a rate of 10 frames/s for a period of 1 min and videos were analyzed using ImageJ software (version 1.41, NIH, USA). Parasite movement quantification and data analysis protocols were applied using the pixel displacement method ([Patocka et al., 2014]; [Rashid et al., 2015]) and compared to control parasites treated with DMSO. Parasites were then washed several times in Opti-MEM, 5% FBS and incubated up to an additional three days (schistosomulae) or five days (adult worms) at 37 °C, 5% CO2 and motility was recorded as described above.

In series [2] the test system is S. mansoni schistosomulae. The experiment in a line: Phenotypic primary screen assay on schistosomulae (phenotype; viability by methylene blue dye exclusion). The conditions noted are these: for Viability (%) / Phenotype: three-day-old schistosomulae, 10 μM, 24 h; for Viability (%): calculated 5 days post compound exposure; for Phenotype: estimated 5 days post compound exposure. Here is the method:
Puerto Rican strain Biomphalaria glabrata snails infected with S. mansoni were kindly provided by Dr. Fred Lewis (Biomedical Research Institute and BEI Resources, MD, USA). Schistosomulae were obtained by exposing six to eight weeks-old snails to continuous light for 2 h at 32 °C. […] At this point, animals with internal dark granulations and with no observable body contraction/relaxation cycles were considered dead.
Schistosomulae were monitored under a stereo microscope (SMZ1270, Nikon). Phenotypic observations were made by analyzing schistosomulae, 24 h after drug addition to assess any immediate effect and five days post-compound exposure to observe long-term impacts on both the movement and overall body shape in comparison to control animals exposed to DMSO only.

In the next series the test system is S. mansoni adult worms. The experiment in a line: Motility assay on adult parasites (pixel displacement, relative to DMSO control). The conditions noted are these: 10 μM; for Fractional motility: secondary screen; for motility phenotype in words: adults, long-term after washout. How it is done:
Adult parasites were collected from 40 day-old female CD1 mice (Charles River) previously inoculated by the tail infection method ([Lewis, 2001]). Six weeks post-infection, mice were sacrificed, and adult worms extracted after perfusion of in the hepatic portal vein and mesenteric venules ([Lewis, 2001]). Animal procedures were reviewed and approved by the Facility Animal Care Committee of McGill University (Protocol No. 3346) and were conducted in accordance with the guidelines of the Canadian Council on Animal Care.
as §1

Setting [3] is: schistosomulae, secondary screen, 24h exposure, read at D1, 1 µM.
Where [4] appears, read: schistosomulae, secondary screen, 24h exposure, read at D1, 10 µM.
Where [5] appears, read: schistosomulae, 1h exposure, read at D1, 10 µM.
[6] abbreviates: schistosomulae, 1h exposure, read at D5, 10 µM.
[7] abbreviates: schistosomulae, 3h exposure, read at D1, 10 µM.
The mark [8] stands for this setting: schistosomulae, 3h exposure, read at D5, 10 µM.
[9] abbreviates: schistosomulae, 6h exposure, read at D1, 10 µM.
Where [10] appears, read: schistosomulae, 6h exposure, read at D5, 10 µM.
The mark [11] stands for this setting: schistosomulae, secondary screen, 24h exposure, read at D5, 1 µM.
Where [12] appears, read: schistosomulae, secondary screen, 24h exposure, read at D5, 10 µM.
Setting [13] is: 120 h, schistosomulae, secondary screen, 24h exposure, read at D5, 1 µM.

Regarding `C#CC[C@H](c1nc2cc(Cl)ccc2c(=O)n1Nc1ccccc1)N(CCCN)C(=O)c1cccc(Cl)c1F` [ARQ 621], the Fractional motility in series [1] (setting [3]) was 2.11; in series [1] (setting [4]), 2.52; in the series on S. mansoni adult worms (D1, Female adult worms), -0.48; with S. mansoni adult worms (D1, Male adult worms), 0.41; in the series with S. mansoni adult worms (D5, Female adult worms), -0.43; in the series with S. mansoni adult worms (D5, Male adult worms), 0.0454. In series [2], the “Viability (%)” value is 13%. The Phenotype entry in series [2] is given as “dark, granulated”.

Regarding `COc1cc(N2CCC(N)CC2)ccc1Nc1ncc(Cl)c(-c2c[nH]c3ccccc23)n1` [AZD3463], the Fractional motility in series [1] (setting [5]) is on record as 1.70; in series [1] (setting [6]), -0.84; in series [1] (setting [7]), 5.60; in series [1] (setting [8]), -0.68; in series [1] (setting [9]), 2.17; in series [1] (setting [10]), -0.70. Besides, the Fractional motility in series [1] (setting [3]) is 0.62; in series [1] (setting [4]), 1.68; in series [1] (setting [11]) it was 0.15; in series [1] (setting [12]) it was -0.81; with S. mansoni adult worms (D1, Female adult worms) it was -0.12; in the series on S. mansoni adult worms (D1, Male adult worms), 0.58. The Fractional motility in the series on S. mansoni adult worms (D5, Female adult worms) is given as -0.93; with S. mansoni adult worms (D5, Male adult worms), -0.57. The “Viability (%)” value in series [2] is on record as 42,5%. Further, the Phenotype entry in series [2] is “dark, granulated”. Besides, in the series on S. mansoni adult worms, the “motility phenotype in words” value is listed as “Significant hypomotility”.

In the case of `CCCCc1oc2ccccc2c1C(=O)c1cc(I)c(OCCN(CC)CC)c(I)c1` [Amiodarone], the activity at 1 µM in series [1] (setting [13]) is 78%; in series [1] (setting [3]), -11%. Further, the Fractional motility is reported as -0.80 in series [1] (setting [4]); -0.98 in series [1] (setting [12]); -0.67 in the series with S. mansoni adult worms (D1, Female adult worms); -0.41 in the series on S. mansoni adult worms (D1, Male adult worms); -0.58 with S. mansoni adult worms (D5, Female adult worms); -0.38 in the series on S. mansoni adult worms (D5, Male adult worms). The Phenotype entry in series [2] was “big, granulated”.

Take `O=C(NC(NC(=S)Nc1ccc(F)c([N+](=O)[O-])c1)C(Cl)(Cl)Cl)C(c1ccccc1)c1ccccc1` (stereo not drawn) [CGK 733]: the Fractional motility is 0.41 in series [1] (setting [3]); -0.71 in series [1] (setting [4]); -0.07 in series [1] (setting [11]); -0.90 in series [1] (setting [12]); -0.10 in the series on S. mansoni adult worms (D1, Female adult worms); 0.12 in the series on S. mansoni adult worms (D1, Male adult worms). Also, the Fractional motility in the series with S. mansoni adult worms (D5, Female adult worms) is -0.83; in the series on S. mansoni adult worms (D5, Male adult worms), -0.19. For the same molecule, the “Viability (%)” value in series [2] is 62,5%. The Phenotype entry in series [2] was “dark, granulated, some big”.

With `O=c1[nH]c2ccc(Cl)cc2c(N[C@@H]2CN3CCC2CC3)c1-c1nc2ccccc2[nH]1` [CHIR-124], the Fractional motility in series [1] (Selleckchem customized library secondary screen, 24h, D1, 1 µM) is 6.60; in series [1] (Selleckchem customized library secondary screen, 24h, D1, 10 µM), 100.65; with S. mansoni adult worms (D1, Female adult worms), 4.53; in the series with S. mansoni adult worms (D1, Male adult worms) it was 10.48; in the series on S. mansoni adult worms (D5, Female adult worms) it was -0.48; with S. mansoni adult worms (D5, Male adult worms), -0.25. In addition, in series [2], the “Viability (%)” value was 77%. In series [2], the Phenotype entry is “big”.

For the molecule `Cc1nc(C#Cc2ccnc(Cl)c2)c(C)n1-c1ccc(OC(F)(F)F)cc1` [CTEP], the Fractional motility in series [1] (setting [3]) is 0.25; in series [1] (setting [4]), 1.01; in series [1] (setting [11]), 0.27; in series [1] (setting [12]) it was 0.27; in the series with S. mansoni adult worms (D1, Female adult worms) it was -0.44; in the series with S. mansoni adult worms (D1, Male adult worms), -0.49. Moreover, the Fractional motility with S. mansoni adult worms (D5, Female adult worms) is given as -0.35; in the series with S. mansoni adult worms (D5, Male adult worms), -0.57. Further, the “Viability (%)” value in series [2] is reported as 99%. In series [2], the Phenotype entry is recorded as “big, granulated, blebbing”.

Take `c1ccc(CNc2nc(NCc3ccccc3)c3ccccc3n2)cc1` [DBeQ]: the Fractional motility was -0.96 in series [1] (setting [5]); -0.93 in series [1] (setting [6]); 1.19 in series [1] (setting [7]); -0.88 in series [1] (setting [8]); 0.41 in series [1] (setting [9]); -0.13 in series [1] (setting [10]). Besides, the Fractional motility in series [1] (setting [3]) is recorded as 7.69; in series [1] (setting [4]), 6.82; in series [1] (setting [11]), -0.29; in series [1] (setting [12]), 4.98; with S. mansoni adult worms (D1, Female adult worms), 0.29; in the series on S. mansoni adult worms (D1, Male adult worms), 0.29. For the same molecule, the Fractional motility is on record as -0.91 in the series on S. mansoni adult worms (D5, Female adult worms) and -0.65 with S. mansoni adult worms (D5, Male adult worms). For the same molecule, the “Viability (%)” value in series [2] is reported as 15,5%. Moreover, in series [2], the Phenotype result is reported as “dark, granulated”. For the same molecule, the “motility phenotype in words” value in the series with S. mansoni adult worms is recorded as “severely paralyzed adults”.

Regarding `CCn1c2ccccc2c2cc(Nc3ccnc(NCCCN4CCOCC4)n3)ccc21` [EHop-016], the Fractional motility is reported as 3.03 in series [1] (setting [3]); 0.07 in series [1] (setting [4]); 0.99 in series [1] (setting [11]); -0.94 in series [1] (setting [12]); 0.25 in the series with S. mansoni adult worms (D1, Female adult worms); 0.85 in the series with S. mansoni adult worms (D1, Male adult worms). Besides, the Fractional motility in the series with S. mansoni adult worms (D5, Female adult worms) is recorded as -0.62; with S. mansoni adult worms (D5, Male adult worms), -0.29. For the same molecule, the “Viability (%)” value in series [2] is 80%. Moreover, the Phenotype entry in series [2] was “big, dark”.

On to `CCOC(=O)CCNc1cc(N2CCc3ccccc3CC2)nc(-c2ccccn2)n1` [GSK J4], for which the Fractional motility in series [1] (setting [5]) is recorded as 0.43; in series [1] (setting [6]), 0.28; in series [1] (setting [7]) it was -0.55; in series [1] (setting [8]) it was -0.56; in series [1] (setting [9]) it was -0.78; in series [1] (setting [10]), -0.70. For the same molecule, the Fractional motility in series [1] (setting [3]) is recorded as 0.46; in series [1] (setting [4]), -0.85; in series [1] (setting [11]), 0.88; in series [1] (setting [12]) it was -1.00; with S. mansoni adult worms (D1, Female adult worms) it was -0.0455; in the series with S. mansoni adult worms (D1, Male adult worms), -0.11. The Fractional motility in the series with S. mansoni adult worms (D5, Female adult worms) is recorded as -0.64; in the series on S. mansoni adult worms (D5, Male adult worms), -0.63. The “Viability (%)” value in series [2] was 5%. Also, the Phenotype entry in series [2] is given as “big, dark, granulated”. For the same molecule, in the series with S. mansoni adult worms, the “motility phenotype in words” value is listed as “Significant hypomotility”.

Regarding `CCc1ccc(OCc2ccccc2C(=O)Nc2ccc3nc(C)cc(N)c3c2)cc1` [JTC-801], the Fractional motility in series [1] (setting [5]) is -0.51; in series [1] (setting [7]), -0.95; in series [1] (setting [8]) it was -0.09; in series [1] (setting [9]) it was -0.74; in series [1] (setting [10]) it was -0.71; in series [1] (setting [3]), 3.71. In addition, the Fractional motility in series [1] (setting [4]) is given as -1.00; in series [1] (setting [11]), 1.04; in series [1] (setting [12]), -0.99; in the series on S. mansoni adult worms (D1, Female adult worms), 1.22; in the series on S. mansoni adult worms (D1, Male adult worms) it was 4.15; in the series on S. mansoni adult worms (D5, Male adult worms), -0.56. The “effect on viability of schistosomulae in words” value in series [2] (24 h incubation, five days) was “lethal”. Moreover, the “Viability (%)” value in series [2] is 0%. In addition, the Phenotype result in series [2] was “big, granulated”.

For the molecule `O=C(C1CCCCC1)N1CC(=O)N2CCc3ccccc3C2C1` (stereo not drawn) [PZQ, praziquantel], the activity at 1 µM is -29% in series [1] (setting [13]) and -30% in series [1] (setting [3]). Further, the Fractional motility is recorded as -0.47 in series [1] (setting [4]); -0.47 in series [1] (setting [12]); -0.96 in the series with S. mansoni adult worms (D1, Female adult worms); -0.98 with S. mansoni adult worms (D1, Male adult worms); -0.98 in the series on S. mansoni adult worms (D5, Female adult worms); -0.99 with S. mansoni adult worms (D5, Male adult worms).
